Measurements from ChEMBL document CHEMBL4627407, “Identification of a Potent Oridonin Analogue for Treatment of Triple-Negative Breast Cancer” (J Med Chem, 2020).

What was measured:
Assay type in all cases: functional, cell-based
[1] = test system: DU-4475; test: Antiproliferative activity against human DU4475 cells after 72 hrs by MTT assay; conditions: DU-4475, 72 h
[2] = test system: HCC1806; test: Antiproliferative activity against human HCC1806 cells after 72 hrs by MTT assay; conditions: HCC1806, 72 h
[3] = test system: MDA-MB-468; test: Antiproliferative activity against human MDA-MB-468 cells after 72 hrs by MTT assay; conditions: MDA-MB-468, 72 h
[4] = test system: MDA-MB-231; test: Antiproliferative activity against human MDA-MB-231 cells after 72 hrs by MTT assay; conditions: MDA-MB-231, 72 h

SMILES	IC50 [2] [nM]	IC50 [3] [nM]	IC50 [4] [nM]	IC50 [1] [nM]
C=C1C(=O)[C@@]23C(=O)[C@@H]4OC[C@]5(C=CCC(C)(C)[C@@H]45)[C@@H]2CC[C@@H]1[C@H]3OC(=O)c1ccc(Cl)cc1	1930	1880	1390	1950
C=C1C(=O)[C@@]23C(=O)[C@@H]4OC[C@]5(C=CCC(C)(C)[C@@H]45)[C@@H]2CC[C@@H]1[C@H]3OC(=O)/C=C/c1ccncc1Cl	820	850	640	860
C=C1C(=O)[C@@]23C(=O)[C@@H]4OC[C@]5(C=CCC(C)(C)[C@@H]45)[C@@H]2CC[C@@H]1[C@H]3OC(=O)c1ccc2ncccc2c1	2670	2560	2110	2590
C=C1C(=O)[C@@]23C(=O)[C@@H]4OC[C@]5(C=CCC(C)(C)[C@@H]45)[C@@H]2CC[C@@H]1[C@H]3OC(=O)C=C(C)C	3060	2810	2090	2720
C=C1C(=O)[C@@]23C(=O)[C@@H]4OC[C@]5(C=CCC(C)(C)[C@@H]45)[C@@H]2CC[C@@H]1[C@H]3OC(=O)c1ccccn1	710	1470	1120	780
C=C1C(=O)[C@@]23C(=O)[C@@H]4OC[C@]5(C=CCC(C)(C)[C@@H]45)[C@@H]2CC[C@@H]1[C@H]3OC(=O)c1ccccc1	7120	8960	7450	8500
C=C1C(=O)[C@@]23C(=O)[C@@H]4OC[C@]5(C=CCC(C)(C)[C@@H]45)[C@@H]2CC[C@@H]1[C@H]3OC(=O)/C=C/c1ccc2c(c1)OCO2	3020	2650	2230	2480
C=C1C(=O)[C@@]23C(=O)[C@@H]4OC[C@]5(C=CCC(C)(C)[C@@H]45)[C@@H]2CC[C@@H]1[C@H]3OC(=O)c1ccncc1	1390	1320	1080	1420
C=C1C(=O)[C@@]23C(=O)[C@@H]4OC[C@]5(C=CCC(C)(C)[C@@H]45)[C@@H]2CC[C@@H]1[C@H]3OC(=O)/C=C/c1ccnc(OC)c1	1930	1750	1420	1630
C=C1C(=O)[C@@]23C(=O)[C@@H]4OC[C@]5(C=CCC(C)(C)[C@@H]45)[C@@H]2CC[C@@H]1[C@H]3OC(=O)/C=C/c1cccnc1	310	530	680	340
C=C1C(=O)[C@@]23C(=O)[C@@H]4OC[C@]5(C=CCC(C)(C)[C@@H]45)[C@@H]2CC[C@@H]1[C@H]3OC(=O)/C=C/c1ccc(F)cc1	1630	1600	1180	1750
C=C1C(=O)[C@@]23C(=O)[C@@H]4OC[C@]5(C=CCC(C)(C)[C@@H]45)[C@@H]2CC[C@@H]1[C@H]3OC(=O)c1ccc(F)cc1	1650	2050	1410	2050
C=C1C(=O)[C@@]23C(=O)[C@@H]4OC[C@]5(CCCC(C)(C)[C@@H]45)[C@@H]2CC[C@@H]1[C@H]3O	2050	2290	1740	1560
C=C1C(=O)[C@@]23C(=O)[C@@H]4OC[C@]5(C=CCC(C)(C)[C@@H]45)[C@@H]2CC[C@@H]1[C@H]3OC(=O)/C=C/c1ccc2ccccc2c1	1780	2250	1470	2000

Further compounds by falling IC50 [2], results first:

IC50 [2] [nM]	IC50 [3] [nM]	IC50 [4] [nM]	SMILES	IC50 [1] [nM]
2870	2490	3660	C=C1C(=O)[C@@]23C(=O)C[C@@H]4C(C)(C)CCC[C@@]4(COC(C)=O)[C@@H]2CC[C@@H]1[C@H]3OC(C)=O	1810
2420	2400	1680	C=C1C(=O)[C@@]23C(=O)[C@@H]4OC[C@@]5([C@H]4C(C)(C)CC[C@@H]5O)[C@@H]2CC[C@@H]1[C@H]3O	1370
2090	1600	1350	C=C1C(=O)[C@@]23C(=O)[C@@H]4OC[C@]5(C=CCC(C)(C)[C@@H]45)[C@@H]2CC[C@@H]1[C@H]3OC(=O)/C=C/c1ccnc(Cl)c1	1710
2050	2440	2160	C=C1C(=O)[C@@]23C(=O)[C@@H]4OC[C@]5(C=CCC(C)(C)[C@@H]45)[C@@H]2CC[C@@H]1[C@H]3OC(=O)/C=C/c1ccc2occc2c1	2400
1970	2340	1620	C=C1C(=O)[C@@]23C(=O)[C@@H]4OC[C@]5(C=CCC(C)(C)[C@@H]45)[C@@H]2CC[C@@H]1[C@H]3OC(=O)/C=C/c1ccc(Cl)cc1	2150
1960	2290	1310	C=C1C(=O)[C@@]23C(=O)[C@@H]4OC[C@]5(C=CCC(C)(C)[C@@H]45)[C@@H]2CC[C@@H]1[C@H]3OC(=O)/C=C/c1ccc(OC)cc1	2320
1710	2020	1300	C=C1C(=O)[C@@]23C(=O)[C@@H]4OC[C@]5(C=CCC(C)(C)[C@@H]45)[C@@H]2CC[C@@H]1[C@H]3OC(=O)c1ccc(OC)cc1	1890
1220	1340	1280	C=C1C(=O)[C@@]23C(=O)[C@@H]4OC[C@]5(C=CCC(C)(C)[C@@H]45)[C@@H]2CC[C@@H]1[C@H]3OC(=O)/C=C/c1ccoc1	1380
1120	1030	700	C=C1C(=O)[C@@]23C(=O)[C@@H]4OC[C@]5(C=CCC(C)(C)[C@@H]45)[C@@H]2CC[C@@H]1[C@H]3OC(=O)/C=C/c1ccnc(F)c1	940
1000	790	960	C=C1C(=O)[C@@]23C(=O)[C@@H]4OC[C@]5(C=CCC(C)(C)[C@@H]45)[C@@H]2CC[C@@H]1[C@H]3OC(C)=O	750
970	990	1300	C=C1C(=O)[C@@]23C(=O)[C@@H]4OC[C@]5(C=CCC(C)(C)[C@@H]45)[C@@H]2CC[C@@H]1[C@H]3O	920
770	840	1080	C=C1C(=O)[C@@]23C(=O)[C@@H]4OC[C@]5(C=CCC(C)(C)[C@@H]45)[C@@H]2CC[C@@H]1[C@H]3OC(=O)/C=C/c1cncnc1	620
730	760	530	C=C1C(=O)[C@@]23C(=O)[C@@H]4OC[C@]5(C=CCC(C)(C)[C@@H]45)[C@@H]2CC[C@@H]1[C@H]3OC(=O)c1cnccn1	710
600	1080	1450	C=C1C(=O)[C@@]23C(=O)[C@@H]4OC[C@]5(C=CCC(C)(C)[C@@H]45)[C@@H]2CC[C@@H]1[C@H]3OC(=O)/C=C/c1ccccn1	470
